pIC50: −log10 of the molar value.
Target: recombinant protein MYT1 (Homo sapiens (Human), UniProt Q99640)
Test: In vitro assay for inhibiting MYT1 kinase activity (ADP-GLO)
Type: biochemical
Details: 10 μM ATP, read-out: Inhibitory activity against recombinant protein MYT1 IC50
Protocol: Recombinant MYT1 protein and the compounds were pre-incubated at room temperature for 15 min, and 10 μM ATP was then added to start the reaction. The mixture was incubated at room temperature for another 60 min, and the ADP-GLO reagent from Promega was then added. The resulting mixture was incubated in the dark for 40 min, a detection solution was then added, and the mixture was incubated for another 45-60 min. The chemiluminescence was determined using ENVISION. The inhibition rate and IC50 were calculated compared to the DMSO group.

recombinant protein MYT1, sequence (Q99640 whole entry): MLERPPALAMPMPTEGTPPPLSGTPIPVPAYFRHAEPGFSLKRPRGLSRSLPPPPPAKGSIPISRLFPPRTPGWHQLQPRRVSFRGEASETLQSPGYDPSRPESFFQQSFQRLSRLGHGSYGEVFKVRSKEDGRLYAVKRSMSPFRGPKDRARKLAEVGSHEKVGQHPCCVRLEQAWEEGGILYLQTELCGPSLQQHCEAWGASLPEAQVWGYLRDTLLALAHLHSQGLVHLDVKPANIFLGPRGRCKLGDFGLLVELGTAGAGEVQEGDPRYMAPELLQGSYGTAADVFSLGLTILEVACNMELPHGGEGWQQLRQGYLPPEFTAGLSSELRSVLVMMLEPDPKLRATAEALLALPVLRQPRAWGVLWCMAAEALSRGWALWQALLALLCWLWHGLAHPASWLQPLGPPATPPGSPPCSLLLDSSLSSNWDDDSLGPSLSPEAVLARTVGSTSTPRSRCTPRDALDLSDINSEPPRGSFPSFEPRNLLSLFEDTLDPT

| Compound | pIC50 |
| --- | --- |
| Cc1cc2c(C(N)=O)c(N)n(-c3c(C)c(O)cc(F)c3C)c2nc1C (single isomer, unassigned) [Compound 1] | ≥ 6.70 |
| Cc1cc2c(C(N)=O)c(N)n(-c3c(C)cc(F)c(O)c3C)c2nc1C (single isomer, unassigned) [Compound 5] | ≥ 6.70 |
| Cc1cc2c(C(N)=O)c(N)n(-c3c(Cl)cc(F)c(O)c3C)c2nc1C [Compound 4] | ≥ 6.70 |
| Cc1cc2c(C(N)=O)c(N)n(-c3c(C)cc(F)c(O)c3Cl)c2nc1C [Compound 8] | ≥ 6.70 |
| Cc1ccc(O)c(C)c1-n1c(N)c(C(N)=O)c2cc(C#N)c(C)nc21 [Compound 9] | ≥ 6.70 |
| Cc1ccc(O)c(C)c1-n1c(N)c(C(N)=O)c2cc3c(nc21)COC3 [Compound 15] | ≥ 6.70 |
| Cc1ccc(O)c(C)c1-n1c(N)c(C(N)=O)c2cc3c(nc21)CCO3 [Compound 18] | ≥ 6.70 |
| Cc1ccc(O)c(C)c1-n1c(N)c(C(N)=O)c2cc3c(nc21)OCC3 [Compound 20] | ≥ 6.70 |
| Cc1cc2c(C(N)=O)c(N)n(-c3c(C)c(O)cc(F)c3Cl)c2nc1C [Compound 24] | ≥ 6.70 |
| Cc1cc2c(C(N)=O)c(N)n(-c3c(C)c(F)cc(O)c3Cl)c2nc1C [Compound 25] | ≥ 6.70 |
| Cc1ccc(O)c(C)c1-n1c(N)c(C(N)=O)c2cc3c(nc21)CCCO3 [Compound 26] | ≥ 6.70 |
| Cc1ccc(O)c(C)c1-n1c(N)c(C(N)=O)c2cc3c(nc21)CCOC3 [Compound 29] | ≥ 6.70 |
| Cc1ccc(O)c(C)c1-n1c(N)c(C(N)=O)c2cc3c(nc21)COCC3 [Compound 32] | ≥ 6.70 |
| Cc1ccc(O)c(C)c1-n1c(N)c(C(N)=O)c2cc3c(nc21)OCCC3 [Compound 35] | ≥ 6.70 |
| Cc1ccc(O)c(C)c1-n1c(N)c(C(N)=O)c2cc3c(nc21)OCO3 [Compound 38] | ≥ 6.70 |
| Cc1ccc(O)c(C)c1-n1c(N)c(C(N)=O)c2cc3cccnc3nc21 [Compound 41] | ≥ 6.70 |
| Cc1ccc(O)c(C)c1-n1c(N)c(C(N)=O)c2cc3ccncc3nc21 [Compound 44] | ≥ 6.70 |
| Cc1ccc(O)c(C)c1-n1c(N)c(C(N)=O)c2cc3cnccc3nc21 [Compound 47] | ≥ 6.70 |
| Cc1ccc(O)c(C)c1-n1c(N)c(C(N)=O)c2cc3ncccc3nc21 [Compound 50] | ≥ 6.70 |
| Cc1ccc(O)c(C)c1-n1c(N)c(C(N)=O)c2cc3nccnc3nc21 [Compound 53] | ≥ 6.70 |
| Cc1ccc(O)c(C)c1-n1c(N)c(C(N)=O)c2cc3cnncc3nc21 [Compound 56] | ≥ 6.70 |

| Compound | pIC50 |
| --- | --- |
| Cc1ccc(O)c(C)c1-n1c(N)c(C(N)=O)c2cc3cnncc3cc21 [Compound 59] | ≥ 6.70 |
| Cc1ccc(O)c(C)c1-n1c(N)c(C(N)=O)c2cc3nccnc3cc21 [Compound 60] | ≥ 6.70 |
| Cc1ccc(O)c(C)c1-n1c(N)c(C(N)=O)c2cc3ccoc3nc21 [Compound 61] | ≥ 6.70 |
| Cc1ccc(O)c(C)c1-n1c(N)c(C(N)=O)c2cc3occc3nc21 [Compound 62] | ≥ 6.70 |
| Cc1ccc(O)c(C)c1-n1c(N)c(C(N)=O)c2cc3cocc3nc21 [Compound 63] | ≥ 6.70 |
| Cc1ccc(O)c(C)c1-n1c(N)c(C(N)=O)c2cc3nc[nH]c3nc21 [Compound 64] | ≥ 6.70 |
| Cc1ccc(O)c(C)c1-n1c(N)c(C(N)=O)c2cc3ncn(C)c3nc21 [Compound 65] | ≥ 6.70 |
| Cc1ccc(O)c(C)c1-n1c(N)c(C(N)=O)c2cc3c(ncn3C)nc21 [Compound 66] | ≥ 6.70 |
| Cc1ccc(O)c(C)c1-n1c(N)c(C(N)=O)c2cc3ncoc3nc21 [Compound 67] | ≥ 6.70 |
| Cc1ccc(O)c(C)c1-n1c(N)c(C(N)=O)c2cc3ocnc3nc21 [Compound 68] | ≥ 6.70 |
| Cc1ccc(O)c(C)c1-n1c(N)c(C(N)=O)c2cc3ncsc3nc21 [Compound 69] | ≥ 6.70 |
| Cc1ccc(O)c(C)c1-n1c(N)c(C(N)=O)c2cc3scnc3nc21 [Compound 70] | ≥ 6.70 |
| Cc1ccc(O)c(C)c1-n1c(N)c(C(N)=O)c2cc3ccn(C)c3nc21 [Compound 71] | ≥ 6.70 |
| Cc1ccc(O)c(C)c1-n1c(N)c(C(N)=O)c2cc3c(ccn3C)nc21 [Compound 72] | ≥ 6.70 |
| Cc1ccc(O)c(C)c1-n1c(N)c(C(N)=O)c2cc3cn(C)cc3nc21 [Compound 73] | ≥ 6.70 |
| Cc1ccc(O)c(C)c1-n1c(N)c(C(N)=O)c2cc3ccsc3nc21 [Compound 74] | ≥ 6.70 |
| Cc1ccc(O)c(C)c1-n1c(N)c(C(N)=O)c2cc3sccc3nc21 [Compound 75] | ≥ 6.70 |
| Cc1ccc(O)c(C)c1-n1c(N)c(C(N)=O)c2cc3cscc3nc21 [Compound 76] | ≥ 6.70 |
| Cc1ccc(O)c(C)c1-n1c(N)c(C(N)=O)c2cc3c(nc21)CCN3 [Compound 77] | ≥ 6.70 |
| Cc1ccc(O)c(C)c1-n1c(N)c(C(N)=O)c2cc3c(nc21)NCC3 [Compound 80] | ≥ 6.70 |
| Cc1ccc(O)c(C)c1-n1c(N)c(C(N)=O)c2cc3c(nc21)CNC3 [Compound 84] | ≥ 6.70 |

| Compound | pIC50 |
| --- | --- |
| Cc1ccc(O)c(C)c1-n1c(N)c(C(N)=O)c2cc3c(nc21)CCN3C [Compound 87] | ≥ 6.70 |
| Cc1ccc(O)c(C)c1-n1c(N)c(C(N)=O)c2cc3c(nc21)N(C)CC3 [Compound 90] | ≥ 6.70 |
| Cc1ccc(O)c(C)c1-n1c(N)c(C(N)=O)c2cc3c(nc21)CN(C)C3 [Compound 93] | ≥ 6.70 |
| Cc1ccc(O)c(C)c1-n1c(N)c(C(N)=O)c2cc3c(nc21)CCN(C)C3 [Compound 96] | ≥ 6.70 |
| Cc1ccc(O)c(C)c1-n1c(N)c(C(N)=O)c2cc3c(nc21)CN(C)CC3 [Compound 99] | ≥ 6.70 |
| Cc1ccc(O)c(C)c1-n1c(N)c(C(N)=O)c2cc3c(nc21)CCCN3 [Compound 102] | ≥ 6.70 |
| Cc1ccc(O)c(C)c1-n1c(N)c(C(N)=O)c2cc3c(nc21)NCCC3 [Compound 103] | ≥ 6.70 |
| Cc1ccc(O)c(C)c1-n1c(N)c(C(N)=O)c2cc3c(nc21)CCCN3C [Compound 104] | ≥ 6.70 |
| Cc1ccc(O)c(C)c1-n1c(N)c(C(N)=O)c2cc3c(nc21)N(C)CCC3 [Compound 105] | ≥ 6.70 |
| Cc1ccc(O)c(C)c1-n1c(N)c(C(N)=O)c2cc3c(nc21)CC=C3 [Compound 106] | ≥ 6.70 |
| Cc1ccc(O)c(C)c1-n1c(N)c(C(N)=O)c2cc3c(nc21)C=CC3 [Compound 109] | ≥ 6.70 |
| Cc1ccc(O)c(C)c1-n1c(N)c(C(N)=O)c2cc3c(nc21)CCC=C3 [Compound 112] | ≥ 6.70 |
| Cc1ccc(O)c(C)c1-n1c(N)c(C(N)=O)c2cc3c(nc21)CC=CC3 [Compound 113] | ≥ 6.70 |
| Cc1ccc(O)c(C)c1-n1c(N)c(C(N)=O)c2cc3c(nc21)C=CCC3 [Compound 114] | ≥ 6.70 |
| Cc1cc2c(C(N)=O)c(N)n(-c3c(C)c(O)cc4c3CCC4)c2nc1C [Compound 115] | ≥ 6.70 |
| Cc1cc2c(C(N)=O)c(N)n(-c3c(C)c(O)cc4c3OCC4)c2nc1C [Compound 118] | ≥ 6.70 |
| Cc1cc2c(C(N)=O)c(N)n(-c3c(C)c(O)cc4c3CCO4)c2nc1C [Compound 121] | ≥ 6.70 |
| Cc1cc2c(C(N)=O)c(N)n(-c3c(C)c(O)cc4c3COC4)c2nc1C [Compound 124] | ≥ 6.70 |
| Cc1cc2c(C(N)=O)c(N)n(-c3c(C)c(O)cc4occc34)c2nc1C [Compound 129] | ≥ 6.70 |
| Cc1cc2c(C(N)=O)c(N)n(-c3c(C)c(O)cc4ccoc34)c2nc1C [Compound 130] | ≥ 6.70 |
| Cc1c(O)cc(F)c(C)c1-n1c(N)c(C(N)=O)c2cc3c(nc21)COC3 [Compound 131] | ≥ 6.70 |

| Compound | pIC50 |
| --- | --- |
| Cc1cc(F)c(O)c(C)c1-n1c(N)c(C(N)=O)c2cc3c(nc21)COC3 [Compound 134] | ≥ 6.70 |
| Cc1nc2c(cc1C#N)c(C(N)=O)c(N)n2-c1c(C)c(O)cc(F)c1C [Compound 137] | ≥ 6.70 |
| Cc1cc(F)c(O)c(C)c1-n1c(N)c(C(N)=O)c2cc(C#N)c(C)nc21 [Compound 140] | ≥ 6.70 |
| Cc1cc2c(C(N)=O)c(N)n(-c3c(C)c(O)cc(F)c3C)c2nc1C#N [Compound 143] | ≥ 6.70 |
| Cc1cc2c(C(N)=O)c(N)n(-c3c(C)cc(F)c(O)c3C)c2nc1C#N [Compound 146] | ≥ 6.70 |
| Cc1cc2c(C(N)=O)c(N)n(-c3c(C)cc4c(c3C)NCC4)c2nc1C [Compound 149] | ≥ 6.70 |
| Cc1cc2c(C(N)=O)c(N)n(-c3c(C)cc4c(c3C)OCC4)c2nc1C [Compound 152] | ≥ 6.70 |
| Cc1cc2c(cc1C#N)c(C(N)=O)c(N)n2-c1c(C)ccc(O)c1C [Compound 154] | ≥ 6.70 |
| Cc1cc2c(C(N)=O)c(N)n(-c3c(C)ccc(O)c3C)c2cc1C#N [Compound 157] | ≥ 6.70 |
| Cc1cc2c(cc1C#N)c(C(N)=O)c(N)n2-c1c(C)c(O)cc(F)c1C [Compound 160] | ≥ 6.70 |
| Cc1cc2c(cc1C#N)c(C(N)=O)c(N)n2-c1c(C)cc(F)c(O)c1C [Compound 163] | ≥ 6.70 |
| Cc1cc2c(C(N)=O)c(N)n(-c3c(C)c(O)cc(F)c3C)c2cc1C#N [Compound 166] | ≥ 6.70 |
| Cc1cc2c(C(N)=O)c(N)n(-c3c(C)cc(F)c(O)c3C)c2cc1C#N [Compound 169] | ≥ 6.70 |
| Cc1ccc(O)c(C)c1-n1c(N)c(C(N)=O)c2cnc(C#N)cc21 [Compound 172] | ≥ 6.70 |
| Cc1cc2c(C(N)=O)c(N)n(-c3c(C)ccc(O)c3C)c2c(C#N)c1C [Compound 173] | ≥ 6.70 |
| Cc1cc2c(C(N)=O)c(N)n(-c3c(C)cnc(O)c3C)c2nc1C [Compound 177] | ≥ 6.70 |
| Cc1cc2c(C(N)=O)c(N)n(-c3c(C)ccc(=O)n3C)c2nc1C [Compound 178] | ≥ 6.70 |
| Cc1c(O)cc(F)c(C)c1-n1c(N)c(C(N)=O)c2cc3ccccc3nc21 [Compound 179] | ≥ 6.70 |
| Cc1cc(F)c(O)c(C)c1-n1c(N)c(C(N)=O)c2cc3ccccc3nc21 [Compound 180] | ≥ 6.70 |
| Cc1ccc(O)c(C(F)(F)F)c1-n1c(N)c(C(N)=O)c2cc(C#N)c(C)nc21 [Compound 181] | ≥ 6.70 |
